This passage reports Ki results from patent publication US20110021565A1, “PIPERIDINE DERIVATIVES AS NK3 ANTAGONISTS” (priority 2007, published 2011).

This assay deals with T1, recombinant human NK3 receptor (Homo sapiens, UniProt P29371).
T1 construct: expressed in transfected cells; host or cells: HEK293 cells, transient expression; membrane preparation
T1 sequence (P29371 1-465): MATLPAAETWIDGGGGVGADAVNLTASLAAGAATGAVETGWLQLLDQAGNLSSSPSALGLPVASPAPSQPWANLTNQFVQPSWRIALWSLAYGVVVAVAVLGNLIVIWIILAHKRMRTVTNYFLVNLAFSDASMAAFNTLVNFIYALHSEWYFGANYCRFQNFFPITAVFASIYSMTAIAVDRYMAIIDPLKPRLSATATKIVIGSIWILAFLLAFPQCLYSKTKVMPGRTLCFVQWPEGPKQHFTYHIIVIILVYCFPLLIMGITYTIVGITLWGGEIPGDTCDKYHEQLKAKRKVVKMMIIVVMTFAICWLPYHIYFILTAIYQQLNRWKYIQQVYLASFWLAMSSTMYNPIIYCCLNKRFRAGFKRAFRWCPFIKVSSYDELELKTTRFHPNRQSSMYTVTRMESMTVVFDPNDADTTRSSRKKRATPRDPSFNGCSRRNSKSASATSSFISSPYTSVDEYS
Kind of assay: [3H]SR142801 competition binding assay. The method, then:
[^3H]SR142801 Competition Binding Assay
hNK3 receptor binding experiment were performed using [^3H]SR142801 (Catalog No. TRK1035, specific activity: 74.0 Ci/mmol, Amersham, GE Healthcare UK limited, Buckinghamshire, UK) and membrane isolated from HEK293 cells transiently expressing recombinant human NK3 receptor. After thawing, the membrane homogenates were centrifuged at 48,000×g for 10 min at 4° C., the pellets were resuspended in the 50 mM Tris-HCl, 4 mM MnCl2, 1 μM phosphoramidon, 0.1% BSA binding buffer at pH 7.4 to a final assay concentration of 5 μg protein/well. For inhibition experiments, membranes were incubated with [^3H]SR142801 at a concentration equal to KD value of radioligand and 10 concentrations of the inhibitory compound (0.0003-10 μM) (in a total reaction volume of 500 μl) for 75 min at room temperature (RT). At the end of the incubation, membranes were filtered onto unitfilter (96-well white microplate with bonded GF/C filter preincubated 1 h in 0.3% PEI+0.3% BSA, Packard BioScience, Meriden, Conn.) with a Filtermate 196 harvester (Packard BioScience) and washed 4 times with ice-cold 50 mM Tris-HCl, pH 7.4 buffer. Nonspecific binding was measured in the presence of 10 μM SB222200 for both radioligands. The radioactivity on the filter was counted (5 min) on a Packard Top-count microplate scintillation counter with quenching correction after addition of 45 μl of microscint 40 (Canberra Packard S. A., Zurich, Switzerland) and shaking for 1 h. Inhibition curves were fitted according to the Hill equation: y=100/(1+(x/IC50)^nH), where nH=slope factor using Excel-fit 4 software ([…]). IC50 values were derived from the inhibition curve and the affinity constant (IQ values were calculated using the Cheng-Prussoff equation Ki=IC50/(1+[L]/KD) where [L] is the concentration of radioligand and KD is its dissociation constant at the receptor, derived from the saturation isotherm. All experiments were performed in duplicate and the mean±standard error (SEM) of the individual Ki values was calculated.

Setting [1] is: [3H]SR142801, membranes of HEK293 cells transiently expressing recombinant human NK3 receptor, read-out: hNK3 Ki.
Setting [2] is: representative compounds, [3H]SR142801, HEK293 membranes, human NK3 receptor, read-out: Ki NK3 h.

Each structure is given as a SMILES string. Like-named read-outs stand apart in the source and are kept apart here.

The term Ki denotes a measure of affinity in units of concentration, obtained from inhibition or displacement. On to `CCN(C1CCN(CCC(C)(C(=O)N(C)Cc2ccc(Cl)cc2)c2ccc(Cl)c(Cl)c2)CC1)S(C)(=O)=O` (stereo not drawn) [Example 72, N-(4-Chloro-benzyl)-2-(3,4-dichloro-phenyl)-4-[4-(ethyl-methanesulfonyl-amino)-piperidin-1-yl]-2,N-dimethyl-butyramide], for which the Ki was 2.2 nM under setting [1] and 2.2 nM under setting [2].

With `COCCN(C(C)=O)C1CCN(CCC(C)(C(=O)N[C@@H](CO)c2ccc(F)cc2)c2ccc(Cl)c(Cl)c2)CC1` (single isomer, unassigned; diastereoisomer 1) [Example 146, 4-{4-[Acetyl-(2-methoxy-ethyl)-amino]-piperidin-1-yl}-2-(3,4-dichloro-phenyl)-N-[1-(4-fluoro-phenyl)-2-hydroxy-ethyl]-2-methyl-butyramide (diastereoisomer 1)], the Ki under setting [1] is 0.7 nM and the inhibitory constant (Ki) under setting [2] stood at 0.7 nM.

As for `CN(C)c1ccc(CNC(=O)C(C)(CCN2CCC(NS(C)(=O)=O)CC2)c2ccc(Cl)c(Cl)c2)cc1` (stereo not drawn) [Example 7, 2-(3,4-Dichloro-phenyl)-N-(4-dimethylamino-benzyl)-4-(4-methanesulfonyl-amino-piperidin-1-yl)-2-methyl-butyramide], the Ki under setting [1] turned out to be 621 nM.

On to `CN(Cc1ccc(Cl)c(C(F)(F)F)c1)C(=O)C(F)(CCN1CCC(N(C)S(C)(=O)=O)CC1)c1ccc(Cl)c(Cl)c1` (stereo not drawn) [Example 54, N-(4-Chloro-3-trifluoromethyl-benzyl)-2-(3,4-dichloro-phenyl)-2-fluoro-4-[4-(methanesulfonyl-methyl-amino)-piperidin-1-yl]-N-methyl-butyramide], for which the Ki under setting [1] turned out to be 24.5 nM.

`CC(CCN1CCC(N2CCCC2=O)CC1)(C(=O)N[C@@H](CO)c1ccc(Cl)c(Cl)c1)c1ccc(Cl)c(Cl)c1` (single isomer, unassigned; diastereoisomer 1) [Example 94, 2-(3,4-Dichloro-phenyl)-N-[-1-(3,4-dichloro-phenyl)-2-hydroxy-ethyl]-2-methyl-4-[4-(2-oxo-pyrrolidin-1-yl)-piperidin-1-yl]-butyramide; diastereoisomer 1]: the Ki under setting [1] is 3 nM and the Ki under setting [2] stood at 3 nM.

As for `COc1ccc(C(CCN2CCC(N3CCCC3=O)CC2)C(=O)N(C)Cc2ccc(Cl)cc2)cc1` (stereo not drawn) [Example 113, N-(4-Chloro-benzyl)-2-(4-methoxy-phenyl)-N-methyl-4-[4-(2-oxo-pyrrolidin-1-yl)-piperidin-1-yl]-butyramide], the Ki under setting [1] is 775 nM.

For the molecule `CC(c1ccc(F)c(C(F)(F)F)c1)N(C)C(=O)C(C)(CCN1CCC(N2CCCC2=O)CC1)c1ccc(Cl)c(Cl)c1` (stereo not drawn) [Example 126, 2-(3,4-Dichloro-phenyl)-N-[1-(4-fluoro-3-trifluoromethyl-phenyl)-ethyl]-2,N-dimethyl-4-[4-(2-oxo-pyrrolidin-1-yl)-piperidin-1-yl]-butyramide], under setting [1], the Ki amounted to 30.3 nM.

With `CN(Cc1ccc(Cl)c(C(F)(F)F)c1)C(=O)C(C)(CCN1CCC(N2CCCC2=O)CC1)c1ccc(Cl)c(Cl)c1` (stereo not drawn) [Example 85, N-(4-Chloro-3-trifluoromethyl-benzyl)-2-(3,4-dichloro-phenyl)-2,N-dimethyl-4-[4-(2-oxo-pyrrolidin-1-yl)-piperidin-1-yl]-butyramide], the Ki reads like this: under setting [1], 1.4 nM; under setting [2], 1.4 nM.

Regarding `Cc1ccc(CN(C)C(=O)C(C)(CCN2CCC(N3CCCC3=O)CC2)c2ccc(Cl)c(Cl)c2)cc1` (stereo not drawn) [Example 89, 2-(3,4-Dichloro-phenyl)-2,N-dimethyl-N-(4-methyl-benzyl)-4-[4-(2-oxo-pyrrolidin-1-yl)-piperidin-1-yl]-butyramide], the Ki is, setting by setting: under setting [1], 5.3 nM; under setting [2], 5.3 nM.

`Cc1ccc(CN(C)C(=O)C(C)(CCN2CCC(NS(C)(=O)=O)CC2)c2ccc(Cl)c(Cl)c2)cc1` (stereo not drawn) [Example 6, 2-(3,4-Dichloro-phenyl)-4-(4-methanesulfonyl-amino-piperidin-1-yl)-2,N-dimethyl-N-(4-methyl-benzyl)-butyramide]: the inhibitory constant (Ki) under setting [1] was determined as 77.4 nM.

Take `CC(CCN1CCC(NS(C)(=O)=O)CC1)(C(=O)NCc1cccc(OC(F)F)c1)c1ccc(Cl)c(Cl)c1` (stereo not drawn) [Example 12, 2-(3,4-Dichloro-phenyl)-N-(3-difluoromethoxy-benzyl)-4-(4-methanesulfonyl-amino-piperidin-1-yl)-2-methyl-butyramide]: the Ki under setting [1] was found to be 309 nM.

Regarding `CC(=O)N(C)C1CCN(CCC(C)(C(=O)N[C@@H](CO)c2ccccc2)c2ccc(Cl)c(Cl)c2)CC1` (stereo partly drawn) [Example 134, 4-[4-(Acetyl-methyl-amino)-piperidin-1-yl]-2-(3,4-dichloro-phenyl)-N-((R)-2-hydroxy-1-phenyl-ethyl)-2-methyl-butyramide], the Ki under setting [1] stood at 35.6 nM.

`CN(Cc1ccc(C(F)(F)F)c(F)c1)C(=O)C(F)(CCN1CCC(NS(C)(=O)=O)CC1)c1ccc(Cl)c(Cl)c1` (stereo not drawn) [Example 61, 2-(3,4-Dichloro-phenyl)-2-fluoro-N-(3-fluoro-4-trifluoromethyl-benzyl)-4-(4-methanesulfonyl-amino-piperidin-1-yl)-N-methyl-butyramide]: the Ki under setting [1] came out at 80 nM.

Regarding `CN(Cc1ccc(Cl)c(C(F)(F)F)c1)C(=O)C(F)(CCN1CCC(NS(C)(=O)=O)CC1)c1ccc(Cl)c(Cl)c1` (stereo not drawn) [Example 63, N-(4-Chloro-3-trifluoromethyl-benzyl)-2-(3,4-dichloro-phenyl)-2-fluoro-4-(4-methanesulfonyl-amino-piperidin-1-yl)-N-methyl-butyramide], under setting [1], the Ki came to 117 nM.

For `CC(=O)N(C)C1CCN(CCC(C)(C(=O)N[C@H](CO)c2ccc(Cl)cc2)c2ccc(Cl)c(Cl)c2)CC1` (stereo partly drawn) [Example 137, 4-[4-(Acetyl-methyl-amino)-piperidin-1-yl]-N-[1-(4-chloro-phenyl)-2-hydroxy-ethyl]-2-(3,4-dichloro-phenyl)-2-methyl-butyramide (diastereosisomer 2)], the Ki under setting [1] was found to be 56 nM.

On to `CC(=O)N(C1CC1)C1CCN(CCC(C)(C(=O)N[C@@H](CO)c2ccc(Cl)c(Cl)c2)c2ccc(Cl)c(Cl)c2)CC1` (single isomer, unassigned; diastereoisomer 1) [Example 144, 4-[4-(Acetyl-cyclopropyl-amino)-piperidin-1-yl]-2-(3,4-dichloro-phenyl)-N-[1-(3,4-dichloro-phenyl)-2-hydroxy-ethyl]-2-methyl-butyramide (diastereoisomer 1)], for which the Ki under setting [1] is 10.1 nM.

With `CCN(C1CCN(CCC(C)(C(=O)N(C)Cc2ccc(C(F)(F)F)c(F)c2)c2ccc(Cl)c(Cl)c2)CC1)S(C)(=O)=O` (stereo not drawn) [Example 69, 2-(3,4-Dichloro-phenyl)-4-[4-(ethyl-methanesulfonyl-amino)-piperidin-1-yl]-N-(3-fluoro-4-trifluoromethyl-benzyl)-2,N-dimethyl-butyramide], the Ki runs as follows: under setting [1], 2.4 nM; under setting [2], 2.4 nM.

`CCCN(C(C)=O)C1CCN(CCC(C)(C(=O)N[C@@H](CO)c2ccc(F)cc2)c2ccc(Cl)c(Cl)c2)CC1` (single isomer, unassigned; epimer 2) [Example 163]: the Ki was 5.6 nM under setting [1] and 5.6 nM under setting [2].

`CCN(C1CCN(CCC(C)(C(=O)N(C)Cc2ccc(Cl)c(C(F)(F)F)c2)c2ccc(Cl)c(Cl)c2)CC1)S(C)(=O)=O` (stereo not drawn) [Example 73, N-(4-Chloro-3-trifluoromethyl-benzyl)-2-(3,4-dichloro-phenyl)-4-[4-(ethyl-methanesulfonyl-amino)-piperidin-1-yl]-2,N-dimethyl-butyramide]: the Ki under setting [1] amounted to 1.5 nM and the inhibition constant (Ki) under setting [2] was found to be 1.5 nM.
